Laboratory results from PMC6270878, “Trigocherrierin A, a Potent Inhibitor of Chikungunya Virus Replication” (Molecules, 2014).

How the values were obtained:
in vitro = conditions: African green monkey
[1] = tested on: chikungunya virus (CHIKV); assay: Chikungunya virus-cell based antiviral assay (inhibition of virus-induced cell death, MTS readout); conditions: for EC50: Chikungunya virus, Vero, read-out: EC50 (50% effective concentration, inhibits CHIKV-induced cell death by 50%); for selectivity index (SI), CC50 Vero/EC50 CHIKV: ratio of CC50 to EC50

| SMILES | CC50 (in vitro) [µM] | EC50 [1] [µM] | selectivity index (SI), CC50 Vero/EC50 CHIKV [1] |
| --- | --- | --- | --- |
| CCN(CC)CCCC(C)Nc1ccnc2cc(Cl)ccc12 (centres unmarked) [Chloroquine, chloroquine, reference compound] | 89 ± 28 | 10 ± 5 | – |
| CC1CCCCCCC(C)C(=O)OC2C(=CCl)C=C3C2(O)C(O)C2(CO)OC2C2C4OC5(c6ccccc6)OC(C(C)C32O5)C4(O)C(O)(CO)C1 (centres unmarked) [Compound 2, Trigocherriolide E] | 6.6 ± 0.6 | 0.7 ± 0.1 | 9.4 |
| C=C(C)C12OC3(c4ccccc4)OC1C1C4OC4(CO)C(O)C4(O)C(O)C(C)=CC4C1(O3)C(C)C2OC(=O)C(C)CCCCCCCC (centres unmarked) [Compound 1, Trigocherrierin A] | 43 ± 16 | 0.6 ± 0.1 | 71.7 |
